Measured values reported in patent publication US8598177B2, “Imidazopyridazines as PAR1 inhibitors, production thereof, and use as medicaments” (Sanofi, priority 2008, dated 2013).
Counter-ions that a name gives are not always drawn.

Target: T1, PAR1 (Homo sapiens, UniProt P25116)
T1 construct: endogenous in cells; host or cells: washed platelets prepared from platelet-rich plasma of healthy volunteer donors
T1 sequence (P25116 22-425): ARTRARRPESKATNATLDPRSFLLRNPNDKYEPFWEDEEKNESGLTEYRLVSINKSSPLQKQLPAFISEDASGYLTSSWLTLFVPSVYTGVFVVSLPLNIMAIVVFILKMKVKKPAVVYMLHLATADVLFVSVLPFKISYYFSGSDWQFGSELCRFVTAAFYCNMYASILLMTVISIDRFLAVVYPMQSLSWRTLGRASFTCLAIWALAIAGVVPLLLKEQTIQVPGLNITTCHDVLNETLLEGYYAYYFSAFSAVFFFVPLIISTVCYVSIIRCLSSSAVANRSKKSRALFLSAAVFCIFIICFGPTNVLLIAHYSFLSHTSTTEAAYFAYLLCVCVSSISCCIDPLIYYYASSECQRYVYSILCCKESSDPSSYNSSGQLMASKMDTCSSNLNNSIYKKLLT
Assay: Inhibition of PAR1-mediated platelet aggregation induced by TRAP
Format: cell-based
Details: washed platelets from healthy volunteer donors, TRAP (70-100 μM solution) as agonist, 96-well format, AUC at 650 nm, 37° C., 20 minutes
Description: PAR1 Determination Method: Inhibition of PAR1-Mediated Platelet Aggregation
The pharmacological testing of the substances took place in platelet aggregation induced by TRAP (thrombin receptor-activating peptide) in 96-well format. For this purpose, blood was taken from healthy volunteer donors in 20 ml syringes containing 2 ml of 3.13% sodium citrate solution. After centrifugation at 150×g for 20 minutes, the platelet-rich plasma (PRP) was separated off and mixed with 1 μl of PGE1 solution (500 μg/ml in ethanol)/ml of PRP. Incubation at room temperature for 5 minutes was followed by centrifugation at 120×g for 15 minutes to remove the leukocytes. The leukocyte-free PRP was transferred in 5 ml portions into 15 ml PP tubes and centrifuged at 360×g for 15 minutes in order to pellet the platelets. The plasma was then decanted off and the platelet sediment from 5 ml of PRP was resuspended in 1 ml of Tyrode's (120 mM NaCl, 2.6 mM KCl, 12 mM NaHCO3, 0.39 mM NaH2PO4×H2O, 10 mM HEPES, 0.35% BSA, 5.5 mM glucose, pH 7.4) and adjusted with Tyrode's to a platelet count of 3×10^5/microliter (4). 13 ml of this cell suspension were then mixed with 866 μL of 10 mM CaCl2 solution, and 120 μL thereof were pipetted into each well of a 96-well plate containing 15 μL of the substance to be tested. After incubation at room temperature in the dark for 30 minutes, 15 μL of a TRAP solution (70-100 μM) were added as agonist, and kinetics were recorded at 650 nm in a SpectraMax 340 at 37° C. for 20 minutes while shaking. The areas under the curves of negative control (Tyrode's/DMSO) and positive control (15 μl of agonist/DMSO) were calculated and the difference was fixed as the 100% value. The substances to be tested were pipetted as serial dilutions in duplicate determination, the AUC was likewise determined for each substance concentration, and the % inhibition of the AUC compared with the control was calculated. On the basis of the % inhibition, the IC50 was calculated by nonlinear regression analysis according to the 4-parameter equation.

SMILES | IC50 [nM]
CCOc1cc2cn(CC(=O)c3cc(NC(C)=O)cc(S(F)(F)(F)(F)F)c3)c(=N)n2nc1OCC [Example 1, trifluoroacetic acid salt] | 5
CCOc1cc2cn(CC(=O)c3cc(N4CCOCC4)c(OC)c(C(C)(C)C)c3)c(=N)n2nc1OCC [Example 3, 1-(3-tert-Butyl-4-methoxy-5-morpholin-4-ylphenyl)-2-(2,3-diethoxy-7-iminoimidazo-[1,5-b]pyridazin-6-yl)ethanone as trifluoroacetic acid salt] | 4
COc1nn2c(=N)n(CC(=O)c3cc(N4CCOCC4)c(OC)c(C(C)(C)C)c3)cc2cc1OCC(F)(F)F [Example 4, 1-(3-tert-Butyl-4-methoxy-5-morpholin-4-ylphenyl)-2-[7-imino-2-methoxy-3-(2,2,2-trifluoroethoxy)imidazo[1,5-b]pyridazin-6-yl]ethanone as trifluoroacetic acid salt] | 180
